Laboratory results as given in patent US10800792B2, “Inhibitors of Bruton's tyrosine kinase and method of their use” (JANSSEN PHARMACEUTICA NV, priority 2015, dated 2020).

Biological target: unphosphorylated-BTK kinase domain (UP-BTK), GST-tagged human BTK (389-659aa) (Homo sapiens (Human), UniProt Q06187)
Experiment: BTK kinase Lanthascreen binding assay
Conditions: Lanthascreen tracer competition, 60 minutes incubation; pIC50 = negative log of the IC50 in molar
Method in brief: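 Compound binding to the unphosphorylated kinase domain was monitored by displacement of a fluorescently labelled tracer in a Lanthascreen format. Potency is given as pIC50, the negative log of the molar IC50.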

Sequence of unphosphorylated-BTK kinase domain (UP-BTK), GST-tagged human BTK (389-659aa) (Q06187 389-659): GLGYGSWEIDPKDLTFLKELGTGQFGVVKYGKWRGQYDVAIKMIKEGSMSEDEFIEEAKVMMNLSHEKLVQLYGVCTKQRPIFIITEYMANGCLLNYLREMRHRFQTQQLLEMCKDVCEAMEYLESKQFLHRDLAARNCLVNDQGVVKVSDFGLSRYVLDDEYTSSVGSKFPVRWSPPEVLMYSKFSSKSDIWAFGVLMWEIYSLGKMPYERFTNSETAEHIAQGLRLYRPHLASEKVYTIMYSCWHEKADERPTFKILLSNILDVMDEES

Row | Structure (SMILES) | BTK_I_binding pIC50
1 | COc1ccccc1Oc1ccc(N2C(=O)Nc3c(C(=O)NC4CCCN(C#N)C4)sc4nccc2c34)c(C)c1 (stereo not shown) [Example 883, N-(1-Cyanopiperidin-3-yl)-5-(4-(2-methoxyphenoxy)-2-methylphenyl)-4-oxo-4,5-dihydro-3H-1-thia-3,5,8-triazaacenaphthylene-2-carboxamide] | 7.0
2 | C=CC(=O)N1CC[C@@H](NC(=O)c2sc3nccc4c3c2NC(=O)N4c2cnc(Oc3ccccc3)cn2)C1 [Example 699, (R)—N-(1-Acryloylpyrrolidin-3-yl)-4-oxo-5-(5-phenoxypyrazin-2-yl)-4,5-dihydro-3H-1-thia-3,5,8-triazaacenaphthylene-2-carboxamide] | 7.2
3 | Cc1cc(Oc2ccccc2)ccc1N1C(=O)Nc2c(C(=O)NC3CCCN(C#N)C3)sc3nccc1c23 (stereo not shown) [Example 890, N-(1-Cyanopiperidin-3-yl)-5-(2-methyl-4-phenoxyphenyl)-4-oxo-4,5-dihydro-3H-1-thia-3,5,8-triazaacenaphthylene-2-carboxamide] | 7.0
4 | Cc1cc(Oc2ccccc2)ccc1N1C(=O)Nc2c(C(=O)N[C@@H]3CCCN(C(=O)/C(C#N)=C/C4CC4)C3)sc3nccc1c23 [Example 850, (R,E)-N-(1-(2-Cano-3-cyclopropylacryloyl)piperidin-3-yl)-5-(2-methyl-4-phenoxyphenyl)-4-oxo-4,5-dihydro-3H-1-thia-3,5,8-triazaacenaphthylene-2-carboxamide] | 7.6
5 | C=CC(=O)N1CCN(c2sc3nccc4c3c2NC(=O)N4c2ccc(Oc3ccccc3)cc2C)CC1 [Example 796, 2-(4-Acryloylpiperazin-1-yl)-5-(2-methyl-4-phenoxyphenyl)-3H-1-thia-3,5,8-triazaacenaphthylen-4(5H)-one] | 6.3
6 | Cc1cc(OCC(C)C)ncc1N1C(=O)Nc2c(C(=O)N[C@@H]3CCCNC3)sc3nccc1c23 (single isomer, unassigned) [Example 760, (R)-5-(*R)-(6-Isobutoxy-4-methylpyridin-3-yl)-4-oxo-N-(piperidin-3-yl)-4,5-dihydro-3H-1-thia-3,5,8-triazaacenaphthylene-2-carboxamide] | <6
7 | Cc1cc(C(=O)Nc2cc(C(F)(F)F)ccn2)ccc1N1C(=O)Nc2c(C(=O)N[C@@H]3CCCN(C(=O)/C(C#N)=C/C4CC4)C3)sc3nccc1c23 [Example 835, (R,E)-N-(1-(2-Cyano-3-cyclopropylacryloyl)piperidin-3-yl)-5-(2-methyl-4-((4-(trifluoromethyl)pyridin-2-yl)carbamoyl)phenyl)-4-oxo-4,5-dihydro-3H-1-thia-3,5,8-triazaacenaphthylene-2-carboxamide] | 8.0
8 | C=CC(=O)N1C[C@H](NC(=O)c2sc3nccc4c3c2NC(=O)N4c2cccc(-c3cccc(F)c3F)c2)C[C@H](OC)C1 [Example 679, N-((3R,5S)-1-Acryloyl-5-methoxypiperidin-3-yl)-5-(2′3′-difluoro-[1,1′-biphenyl]-3-yl)-4-oxo-4,5-dihydro-3H-1-thia-3,5,8-triazaacenaphthylene-2-carboxamide] | 7.8

Same assay, conditions: Lanthascreen tracer competition, 60 minutes incubation; pIC50 = negative log of the IC50 in molar; read-out: BTK_I_binding pIC50 (converted)

Row | Structure (SMILES) | IC50 [nM]
9 | C=CC(=O)N1CCCC(C(=O)Nc2sc3nccc4c3c2NC(=O)N4c2ccc(Oc3ccccc3)cc2C)C1 (stereo not shown) [Example 788, 1-Acryloyl-N-(5-(2-methyl-4-phenoxyphenyl)-4-oxo-4,5-dihydro-3H-1-thia-3,5,8-triazaacenaphthylen-2-yl)piperidine-3-carboxamide] | 200

Same assay, conditions: pIC50 = negative log of the IC50 in molar; 60 minutes incubation, 50 nM Tracer 236

Row | Structure (SMILES) | BTK_I_binding pIC50
10 | Cc1cc(Oc2ccccc2)ccc1N1C(=O)Nc2c(C(=O)N[C@@H]3CCOC3)sc3nccc1c23 [Example 108, (R)-5-(2-Methyl-4-phenoxyphenyl)-4-oxo-N-(tetrahydrofuran-3-yl)-4,5-dihydro-3H-1-thia-3,5,8-triazaacenaphthylene-2-carboxamide] | 7.5
11 | CNCC(=O)N1CCC[C@@H](NC(=O)c2sc3nccc4c3c2NC(=O)N4c2ccc(Oc3ccccc3)cc2C)C1 (single isomer, unassigned) [Example 183, (R)-5-(*S)-(2-Methyl-4-phenoxyphenyl)-N-(1-(2-(methylamino)acetyl)piperidin-3-yl)-4-oxo-4,5-dihydro-3H-1-thia-3,5,8-triazaacenaphthylene-2-carboxamide] | 7.5
12 | Cc1cc(OC2CCCCC2)ccc1N1C(=O)Nc2c(C(=O)N[C@@H]3CCCN(C)C3)sc3nccc1c23 [Example 250, (R)-5-(4-(Cyclohexyloxy)-2-methylphenyl)-N-(1-methylpiperidin-3-yl)-4-oxo-4,5-dihydro-3H-1-thia-3,5,8-triazaacenaphthylene-2-carboxamide] | 6.4
13 | CC#CC(=O)N1CCC[C@@H](NC(=O)c2sc3nccc4c3c2NC(=O)N4c2ccc(Oc3ccccc3)cc2C)C1 [Example 42, (R)—N-(1-(But-2-ynoyl)piperidin-3-yl)-5-(2-methyl-4-phenoxyphenyl)-4-oxo-4,5-dihydro-3H-1-thia-3,5,8-triazaacenaphthylene-2-carboxamide] | 7.0
14 | Cc1cc(Oc2ccccc2)ccc1N1C(=O)Nc2c(C(=O)N[C@@H]3CCCN(C(=O)[C@H]4CCNC4)C3)sc3nccc1c23 [Example 131, 5-(2-Methyl-4-phenoxyphenyl)-4-oxo-N—((R)-1-((S)-pyrrolidine-3-carbonyl)piperidin-3-yl)-4,5-dihydro-3H-1-thia-3,5,8-triazaacenaphthylene-2-carboxamide] | 7.5
15 | Cc1cc(Oc2ccccc2)ccc1N1C(=O)Nc2c(C(=O)NC3CN(C)C3)sc3nccc1c23 [Example 248, 5-(2-Methyl-4-phenoxyphenyl)-N-(1-methylazetidin-3-yl)-4-oxo-4,5-dihydro-3H-1-thia-3,5,8-triazaacenaphthylene-2-carboxamide] | 6.5
16 | Cc1cc(Oc2ccccc2)ccc1N1C(=O)Nc2c(C(=O)NC[C@@H]3CCCN3)sc3nccc1c23 [Example 269, (S)-5-(2-Methyl-4-phenoxyphenyl)-4-oxo-N-(pyrrolidin-2-ylmethyl)-4,5-dihydro-3H-1-thia-3,5,8-triazaacenaphthylene-2-carboxamide] | 6.3
17 | COC=C(C#N)C(=O)N1CCC[C@@H](NC(=O)c2sc3nccc4c3c2NC(=O)N4c2ccc(Oc3ccccc3)cc2C)C1 (mixture of isomers) [Example 231, (R,EZ)—N-(1-(2-Cyano-3-methoxyacryloyl)piperidin-3-yl)-5-(2-methyl-4-phenoxyphenyl)-4-oxo-4,5-dihydro-3H-1-thia-3,5,8-triazaacenaphthylene-2-carboxamide] | 6.8

Same assay, conditions: pIC50 = negative log of the IC50 in molar; 60 minutes incubation, 50 nM Tracer 236; read-out: BTK_I_binding pIC50 (converted)

Row | Structure (SMILES) | IC50 [nM]
18 | Cc1cc(Oc2ccccc2)ccc1N1C(=O)Nc2c(C(=O)NC3CN(C(=O)CCS(C)(=O)=O)C3)sc3nccc1c23 [Example 240] | 200

Same assay, conditions: unphosphorylated-BTK kinase domain, 50 nM Tracer 236, 60 minutes; pIC50 = negative log of the IC50 in molar

Row | Structure (SMILES) | BTK_I_binding pIC50
19 | Cc1cc(Oc2ccccc2)ccc1N1C(=O)Nc2c(C(=O)N[C@@H]3CCCN(C(=O)/C(C#N)=C/C4(C)COC4)C3)sc3nccc1c23 (single isomer, unassigned) [Example 509, (R,EZ)—N-(1-(2-Cyano-3-(3-methyloxetan-3-yl)acryloyl)piperidin-3-yl)-5-(*S)-(2-methyl-4-phenoxyphenyl)-4-oxo-4,5-dihydro-3H-1-thia-3,5,8-triazaacenaphthylene-2-carboxamide] | 7.9
20 | Cc1cc(Oc2ccccc2C(N)=O)ccc1N1C(=O)Nc2c(C(=O)N[C@@H]3CCCN(C)C3)sc3nccc1c23 [Example 326, (R)-5-(4-(2-Carbamoylphenoxy)-2-methylphenyl)-N-(1-methylpiperidin-3-yl)-4-oxo-4,5-dihydro-3H-1-thia-3,5,8-triazaacenaphthylene-2-carboxamide] | 5.7
21 | C=CC(=O)N1CCC[C@@H](NC(=O)c2sc3nccc4c3c2NC(=O)N4c2ccc(Cl)c(C(F)(F)F)c2)C1 [Example 362, (R)—N-(1-Acryloylpiperidin-3-yl)-5-(4-chloro-3-(trifluoromethyl)phenyl)-4-oxo-4,5-dihydro-3H-1-thia-3,5,8-triazaacenaphthylene-2-carboxamide] | 5.4
22 | Cc1cc(Oc2ccccc2)ccc1N1C(=O)Nc2c(C(=O)N[C@@H]3CCN(C(=O)CCS(C)(=O)=O)C3)sc3nccc1c23 (single isomer, unassigned) [Example 494, (R)-5-(*S)-(2-Methyl-4-phenoxyphenyl)-N-(1-(3-(methylsulfonyl)propanoyl)pyrrolidin-3-yl)-4-oxo-4,5-dihydro-3H-1-thia-3,5,8-triazaacenaphthylene-2-carboxamide] | 8.0
23 | CC(C)=C(Cl)C(=O)N1CCC[C@@H](NC(=O)c2sc3nccc4c3c2NC(=O)N4c2ccc(Oc3ccccc3)cc2C)C1 (single isomer, unassigned) [Example 438, (R)—N-(1-(2-Chloro-3-methylbut-2-enoyl)piperidin-3-yl)-5-(*S)-(2-methyl-4-phenoxyphenyl)-4-oxo-4,5-dihydro-3H-1-thia-3,5,8-triazaacenaphthylene-2-carboxamide] | 6.7
24 | Cc1cc(Oc2ccccc2)ccc1N1C(=O)Nc2c(C(=O)N[C@@H]3CCCN(C(=O)/C=C/CNS(C)(=O)=O)C3)sc3nccc1c23 [Example 383, (R,E)-5-(2-Methyl-4-phenoxyphenyl)-N-(1-(4-(methylsulfonamido)but-2-enoyl)piperidin-3-yl)-4-oxo-4,5-dihydro-3H-1-thia-3,5,8-triazaacenaphthylene-2-carboxamide] | 7.2
25 | C=CC(=O)N1CC[C@@H](NC(=O)c2sc3nccc4c3c2NC(=O)N4c2ccc(Oc3ccccc3)c(Cl)c2)C1 [Example 558, (R)—N-(1-Acryloylpyrrolidin-3-yl)-5-(3-chloro-4-phenoxyphenyl)-4-oxo-4,5-dihydro-3H-1-thia-3,5,8-triazaacenaphthylene-2-carboxamide] | 7.7
